Reference: US20240109930A1, “TRIAZOLYL-METHYL SUBSTITUTED ALPHA-D-GALACTOPYRANOSIDE DERIVATIVES” (Idorsia Pharmaceuticals Ltd, priority 2021, published 2024)

What was measured:
[1] = target: human Gal-3 (hGal-3) (Homo sapiens (Human), UniProt P17931); experiment: Competitive binding assay: biotinylated hGal-3 binding to microplate-adsorbed asialofetuin (ASF); details: IC50 values from several measurements given as geomean
Description: (§1) The inhibitory activity of compounds is determined in competitive binding assays. This spectrophotometric assay measures the binding of biotinylated human Gal-3 (hGal-3) or human Gal-1 (hGal-1), respectively, to a microplate-adsorbed glycoprotein, asialofetuin (ASF) (Proc Natl Acad Sci USA. 2013 Mar. 26; 110(13):5052-7.). Alternatively, and preferably, a human Gal-1 version in which all six cysteines are substituted by serines may be used.
(§2) Briefly, compounds are serially diluted in DMSO (working dilutions). ASF-coated 384well plates are supplemented with 22.8 μL/well of biotinylated hGal-3 or hGal-1 in assay buffer (i.e. 300-1000 ng/mL biotinylated hGal-3 or hGal-1) to which 1.2 μL of compound working dilutions are added and mixed.
(§3) Plates are incubated for 3 hours at 4° C., then washed with cold assay buffer (3×50 uL), incubated for 1 hour with 25 μL/well of a streptavidin-peroxidase solution (diluted in assay buffer to 80 ng/mL) at 4° C., followed by further washing steps with assay buffer (3×50 uL). Finally, 25 μL/well of ABTS substrate is added.
(§4) The calculated IC50 values may fluctuate depending on the daily assay performance. Fluctuations of this kind are known to those skilled in the art. IC50 values from several measurements are given as geomean values.

[2] = target: human Gal-1 (hGal-1) (Homo sapiens, UniProt P09382, C131S/C17S/C43S/C61S/C89S); experiment: Competitive binding assay: biotinylated hGal-1 binding to microplate-adsorbed asialofetuin (ASF); details: IC50 values from several measurements given as geomean
Description: as §1, §2, §3, §4

human Gal-3 (hGal-3), sequence (P17931 whole entry): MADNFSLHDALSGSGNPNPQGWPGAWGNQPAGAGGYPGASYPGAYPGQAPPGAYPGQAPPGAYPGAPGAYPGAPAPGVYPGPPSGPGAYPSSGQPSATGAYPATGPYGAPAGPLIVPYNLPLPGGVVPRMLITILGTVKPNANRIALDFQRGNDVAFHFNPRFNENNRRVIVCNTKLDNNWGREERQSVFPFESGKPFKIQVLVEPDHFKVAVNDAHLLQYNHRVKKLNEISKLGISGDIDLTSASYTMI

Structure (SMILES)	IC50 [1] [nM]	IC50 [2] [nM]
CO[C@@H]1[C@@H](n2cc(-c3ccc(C)c(F)c3F)nn2)[C@@H](O)[C@@H](CO)O[C@@H]1Cc1cn([C@]2(C)C[C@H](O)C2)nn1 [Ex 1.1.19.]	20	670
CO[C@@H]1[C@@H](n2cc(-c3ccc(Cl)c(F)c3F)nn2)[C@@H](O)[C@@H](CO)O[C@@H]1Cc1cn(C(C)(C)C(F)(F)F)nn1 [Ex 2.1.56.]	50	820
CO[C@@H]1[C@@H](n2cc(-c3ccc(F)c(F)c3F)nn2)[C@@H](O)[C@@H](CO)O[C@@H]1Cc1cn(C2(CO)CCC2)nn1 [Ex 3.1.11.]	40	890
CO[C@@H]1[C@@H](n2cc(-c3ccc(C)c(F)c3F)nn2)[C@@H](O)[C@@H](CO)O[C@@H]1Cc1cn(C2(C(F)F)COC2)nn1 [Ex 1.1.53., (2R,3R,4S,5R,6R)-4-(4-(2,3-difluoro-4-methylphenyl)-1H-1,2,3-triazol-1-yl)-6-((1-(3-(difluoromethyl)oxetan-3-yl)-1H-1,2,3-triazol-4-yl)methyl)-2-(hydroxymethyl)-5-methoxytetrahydro-2H-pyran-3-ol]	20	520
CO[C@@H]1[C@@H](n2cc(-c3ccc(Br)c(F)c3F)nn2)[C@@H](O)[C@@H](CO)O[C@@H]1Cc1cn(C2(CF)CCC2)nn1 [Ex 4.1.40., (2R,3R,4S,5R,6R)-4-(4-(4-bromo-2,3-difluorophenyl)-1H-1,2,3-triazol-1-yl)-6-((1-(1-(fluoromethyl)cyclobutyl)-1H-1,2,3-triazol-4-yl)methyl)-2-(hydroxymethyl)-5-methoxytetrahydro-2H-pyran-3-ol]	60	1030
CO[C@@H]1[C@@H](n2cc(-c3ccc(Cl)c(F)c3F)nn2)[C@@H](O)[C@@H](CO)O[C@@H]1Cc1cn(C23COC(C)(C2)C3)nn1 [Ex 2.1.59., (2R,3R,4S,5R,6R)-4-(4-(4-chloro-2,3-difluorophenyl)-1H-1,2,3-triazol-1-yl)-2-(hydroxymethyl)-5-methoxy-6-((1-(1-methyl-2-oxabicyclo[2.1.1]hexan-4-yl)-1H-1,2,3-triazol-4-yl)methyl)tetrahydro-2H-pyran-3-ol]	50	2370
CO[C@@H]1[C@@H](n2cc(-c3ccc(Cl)c(F)c3F)nn2)[C@@H](O)[C@@H](CO)O[C@@H]1Cn1cc(C2(C)CC2)nn1 [Ex 2.2.23.]	60	1710
CO[C@@H]1[C@@H](n2cc(-c3ccc(Br)c(F)c3F)nn2)[C@@H](O)[C@@H](CO)O[C@@H]1Cc1cn(C2(C(F)(F)F)COC2)nn1 [Ex 4.1.58.]	20	1070
CO[C@@H]1[C@@H](n2cc(-c3ccc(Br)c(F)c3F)nn2)[C@@H](O)[C@@H](CO)O[C@@H]1Cn1cc(C2(C)COC2)nn1 [Ex 4.2.6.]	70	2530
CO[C@@H]1[C@@H](n2cc(-c3ccc(Cl)c(F)c3F)nn2)[C@@H](O)[C@@H](CO)O[C@@H]1Cn1cc(C23CC(C2)C3)nn1 [Ex 2.2.12.]	50	3400
CO[C@@H]1[C@@H](n2cc(-c3ccc(Br)c(F)c3F)nn2)[C@@H](O)[C@@H](CO)O[C@@H]1Cc1cn([C@H]2CCCC2(F)F)nn1 [Example 4.1.64.B, (2R,3R,4S,5R,6R)-4-(4-(4-bromo-2,3-difluorophenyl)-1H-1,2,3-triazol-1-yl)-6-((1-((S)-2,2-difluorocyclopentyl)-1H-1,2,3-triazol-4-yl)methyl)-2-(hydroxymethyl)-5-methoxytetrahydro-2H-pyran-3-ol]	50	1810
CO[C@@H]1[C@@H](n2cc(-c3ccc(F)c(F)c3F)nn2)[C@@H](O)[C@@H](CO)O[C@@H]1Cc1cn(C23CC(OC)(C2)C3)nn1 [Ex 3.1.29.]	30	760
CO[C@@H]1[C@@H](n2cc(-c3ccc(Cl)c(F)c3F)nn2)[C@@H](O)[C@@H](CO)O[C@@H]1Cc1cn(C23CCC(N)(CC2)CC3)nn1 [Ex 2.2.39.]	70	6070
CO[C@@H]1[C@@H](n2cc(-c3ccc(F)c(F)c3F)nn2)[C@@H](O)[C@@H](CO)O[C@@H]1Cc1cn(C2(CCO)COC2)nn1 [Ex 3.1.22.]	60	420
CO[C@@H]1[C@@H](n2cc(-c3ccc(Br)c(F)c3F)nn2)[C@@H](O)[C@@H](CO)O[C@@H]1Cc1cn(C2(C(F)(F)F)CC2)nn1 [Ex 4.1.54.]	30	1170
CO[C@@H]1[C@@H](n2cc(-c3ccc(F)c(F)c3F)nn2)[C@@H](O)[C@@H](CO)O[C@@H]1Cc1cn(C2(CF)CCC2)nn1 [Ex 3.1.40., (2R,3R,4S,5R,6R)-6-((1-(1-(fluoromethyl)cyclobutyl)-1H-1,2,3-triazol-4-yl)methyl)-2-(hydroxymethyl)-5-methoxy-4-(4-(2,3,4-trifluorophenyl)-1H-1,2,3-triazol-1-yl)tetrahydro-2H-pyran-3-ol]	70	260
COC1=C(N2CC(c3ccc(Br)c(F)c3F)NN2)C(O)=C(CO)O[C@@H]1Cn1cc(C23CCC(NC(=O)OC(C)(C)C)(CC2)CC3)nn1 (stereo partly shown) [Ex 4.2.37.]	50	11300
